Test results published in patent US11203586B2, “Iridinesulfonamide compound and use method thereof” (Chia Tai Tianqing Pharmaceutical Group Co., Ltd., priority 2016, dated 2021).

Experiments:
[1] = Pharmacokinetic test; format: in vivo; conditions: male SD rats, oral 5 mg/kg
Method: Male SD rats were from Beijing Vital River Laboratory Animal Technology Co., Ltd., and divided into groups (3 rats per group). The rats were intragastically administered with the test sample suspension (5 mg/kg) via a single peroral administration, respectively. The animals were fasted overnight before this study. The fasting time period was from 10 hours before administration to 4 hours after administration. Blood samples were taken at 0.25, 0.5, 1, 2, 4, 6, 8 and 24 hours after administration. After the rats were anesthetized with isoflurane using an anesthesia machine for small animal, and then 0.3 mL whole blood samples were taken from the fundus venous plexus. The blood samples were placed in heparin anticoagulant tubes, and centrifuged for 5 min at 4° C. and 4000 rpm. The plasma was transferred to centrifuge tubes, and stored at −80° C. until analysis. The samples in plasma were extracted through protein precipitation. The liquid extract was analyzed by LC-MS/MS, mobile phase A: water (0.1% of formic acid), B: acetonitrile (0.1% of formic acid), strong needle wash solution: acetonitrile:water=9:1, weak needle wash solution: acetonitrile:water=1:9.

[2] = molecular target: T1, IDH1 (R132H) (Homo sapiens (Human), UniProt O75874, R132H); assay: Binding mode determination, free compound by LC-MS/MS; conditions: incubated with IDH1 (R132H), FIG. 1
T1 sequence (O75874 whole entry R132H): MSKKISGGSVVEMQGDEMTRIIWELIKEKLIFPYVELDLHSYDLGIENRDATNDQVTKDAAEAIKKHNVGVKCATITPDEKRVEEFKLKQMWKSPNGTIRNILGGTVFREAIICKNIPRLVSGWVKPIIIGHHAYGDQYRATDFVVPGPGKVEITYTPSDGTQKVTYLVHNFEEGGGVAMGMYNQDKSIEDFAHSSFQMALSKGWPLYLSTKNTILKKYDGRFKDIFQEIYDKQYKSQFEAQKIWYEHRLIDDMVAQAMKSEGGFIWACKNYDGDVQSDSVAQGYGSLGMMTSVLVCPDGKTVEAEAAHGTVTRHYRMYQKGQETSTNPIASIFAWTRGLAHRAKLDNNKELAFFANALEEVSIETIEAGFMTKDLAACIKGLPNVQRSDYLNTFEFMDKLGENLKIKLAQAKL
Method: The compounds were incubated with IDH1 (R132H), and then divided into N parts. The reaction was terminated by adding acetonitrile at different time points, and the organic phase was separated by centrifugation. The resulting samples were stored at −80° C. until analysis, and the concentration of the compounds in free from were analyzed by LC-MS/MS, mobile phase A: water (0.1% of formic acid), B: acetonitrile (0.1% of formic acid), strong needle wash solution: acetonitrile:water=9:1, weak needle wash solution: acetonitrile:water=1:9.

[3] = molecular target: T1, IDH1 (R132H); assay: Enzyme assay, NADPH decrease detected with Diaphorase/Resazurin; format: biochemical; conditions: 40 nM enzyme, 20 μM NADPH, incubated at 23° C. for 16 hours before α-KG; 12 concentrations
Description: (§1) Resazurin is a traditional redox dye, and after a redox reaction, it can be reduced from a blue resazurin without fluorescence to a pink fluorescent substance, resorufin, which can be measured and quantified with relative fluorescence unit (RFU) of fluorophotometer (Ex=530-570 nm, Em=590-620 nm). At present, resazurin is widely used for determining the viability of bacteria, cells, etc. and the enzyme activity detection of oxidoreductase. We detected the decrease of cofactor NADPH to determine the inhibitory activity of a compound against IDHm and detected the generation of cofactor NADPH to determine the inhibitory activity of a compound against IDH WT.
(§2) The compound was pre-incubated with IDHm and NADPH, and then the reaction was initiated by adding α-KG and performed for certain time under a linear condition.
(§3) Then, Diaphorase (lipoamide dehydrogenase) and the corresponding substrate Resazurin were added thereto for detection. Lipoamide dehydrogenase terminated the IDH2m reaction by decreasing the available cofactor NADPH, which oxidized NADPH to NADP, and reduced resazurin to high fluorescent resorufin. The amount of the remaining cofactor NADPH after a specific reaction time was quantified via an easily detectable fluorophore.
(§4) The specific operation was as follows: 2.5 μl of the compound diluted in a 3-fold gradient was added to a 384-well plate, followed by adding 5 μL of the reaction buffer (20 mM Tris-HCl, pH 7.5; 150 mM NaCl; 10 mM MgCl2; 0.4 mg/mL BSA (Bovine Serum Albumin) and 2 mM DTT (dithiothreitol)) containing 40 nM IDH1 (R132H/R132C) and 20 μM NADPH. Then, the above test mixture was incubated at 23° C. for 16 hours, and then 2.5 μL of the reaction buffer containing 4 mM α-KG was added to initiate the reaction. After they were incubated for 60 minutes at room temperature, 5 μL of the termination mixture (0.4 U/ml Diaphorase and 20 μM Resazurin) formulated with the reaction buffer was added to convert resazurin to resorufin, so as to measure the amount of the remaining NADPH. After incubating at 23° C. for 10 minutes, fluorescence values were determined through Flexstation 3 at Ex535/Em595. The enzyme activity of each compound was respectively determined at 12 concentrations, and the data were calculated using the software GraFit6.0 (Erithacus Software) to obtain the IC50 value of each compound.

[4] = molecular target: IDH1 (R132C) (Homo sapiens (Human), UniProt O75874, R132C); assay: as above; format: biochemical; conditions: 40 nM enzyme, 20 μM NADPH, incubated at 23° C. for 16 hours before α-KG; 12 concentrations
IDH1 (R132C), sequence (O75874 whole entry R132C): as the sequence (O75874 whole entry R132H) above, with H132C counted along it
Description: as §1, §2, §3, §4

[5] = rat, 0.5% MC, 0.2% Tween80, plasma

| SMILES | IC50 [3] | further results |
| --- | --- | --- |
| O=C(NC1CC(F)(F)C1)C(c1ccccc1Cl)N(C(=O)CNS(=O)(=O)N1CC1)c1cccc(F)c1 (stereo not drawn) [Example 10, 2-(aziridine-1-sulfonylamino)-N-(1-(2-chlorophenyl)-2-((3,3-difluorocyclobutyl)amino)-2-oxoethyl)-N-(3-fluorophenyl)acetamide] | < 20 nM | drug concentration in vivo over time ([1]; PK curve FIG. 2): decreased drug concentration in vivo over time; Cmax [1, 5]: 508 ng/mL; Tmax [1, 5]: 15 min; half-life [1, 5]: 90 min; AUC(0-inf) ([1]; rat, 0.5% MC, 0.2% Tween80, plasma, read-out: AUCINF—obs): 794 ng·h/mL; binding of the compound to the enzyme over time [2]: increased over time |
| O=C(NC1CC(F)(F)C1)[C@H](c1ccccc1Cl)N(C(=O)CNS(=O)(=O)N1CC1)c1cccc(F)c1 [Example 25, (S)-2-(aziridine-1-sulfonylamino)-N-(1-(2-chlorophenyl)-2-((3,3-difluorocyclobutyl)amino)-2-oxoethyl)-N-(3-fluorophenyl)acetamide] | < 20 nM | IC50 [4]: < 20 nM |
| O=C(NC1CC(F)(F)C1)C(c1ccccc1Cl)N(C(=O)CNS(=O)(=O)N1CC1)c1ccc(F)c(F)c1 (stereo not drawn) [Example 29, 2-(aziridine-1-sulfonylamino)-N-(1-(2-chlorophenyl)-2-((3,3-difluorocyclobutyl)amino)-2-oxoethyl)-N-(3,4-difluorophenyl)acetamide] | < 20 nM |  |
| O=C(NC1CCC(F)(F)CC1)C(c1ccccc1Cl)N(C(=O)CNS(=O)(=O)N1CC1)c1cccc(F)c1 (stereo not drawn) [Example 30, 2-(aziridine-1-sulfonylamino)-N-(1-(2-chlorophenyl)-2-(4,4-difluorocyclohexylamino)-2-oxoethyl)-N-(3-fluorophenyl)acetamide] | < 20 nM |  |
| C[C@@H]1CN1S(=O)(=O)NCC(=O)N(c1cccc(F)c1)C(C(=O)NC1CCCCC1)c1ccccc1Cl (stereo partly drawn) [Example 31, 2-(2-chlorophenyl)-N-cyclohexyl-2-(N-(3-fluorophenyl)-2-(((R)-2-methylaziridine)-1-sulfonylamino)acetamido)acetamide] | < 20 nM |  |
| C[C@H]1CN1S(=O)(=O)NCC(=O)N(c1cccc(F)c1)C(C(=O)NC1CCCCC1)c1ccccc1Cl (stereo partly drawn) [Example 32, 2-(2-chlorophenyl)-N-cyclohexyl-2-(N-(3-fluorophenyl)-2-(((S)-2-methylaziridine)-1-sulfonylamino)acetamido)acetamide] | < 20 nM |  |
| C[C@H]1CN1S(=O)(=O)NCC(=O)N(c1cc(F)cc(C#N)c1)C(C(=O)NC1CC(F)(F)C1)c1ccccc1Cl (stereo partly drawn) [Example 33, 2-(2-chlorophenyl)-2-(N-(3-cyano-5-fluorophenyl)-2-(((S)-2-methylaziridine)-1-sulfonylamino)acetamido)-N-(3,3-difluorocyclobutyl)acetamide] | < 100 nM |  |
| O=C(NC1CC(F)(F)C1)[C@H](c1ccccc1Cl)N(C(=O)[C@H]1CCN(S(=O)(=O)N2CC2)C1)c1cccc(F)c1 [Example 34, (S)-1-(aziridin-1-ylsulfonyl)-N—((S)-1-(2-chlorophenyl)-2-((3,3-difluorocyclobutyl)amino)-2-oxoethyl)-N-(3-fluorophenyl)pyrrolidine-3-carboxamide] | < 20 nM |  |
| O=C(NC1CC(F)(F)C1)[C@@H](c1ccccc1Cl)N(C(=O)[C@H]1CCN(S(=O)(=O)N2CC2)C1)c1cccc(F)c1 [Example 35, (S)-1-(aziridin-1-ylsulfonyl)-N—((R)-1-(2-chlorophenyl)-2-((3,3-difluorocyclobutyl)amino)-2-oxoethyl)-N-(3-fluorophenyl)pyrrolidine-3-carboxamide] | < 20 nM |  |
| O=C(NC1CC(F)(F)C1)[C@H](c1ccccc1Cl)N(C(=O)[C@@H]1CCN(S(=O)(=O)N2CC2)C1)c1cccc(F)c1 [Example 36, (R)-1-(aziridin-1-ylsulfonyl)-N—((S)-1-(2-chlorophenyl)-2-((3,3-difluorocyclobutyl)amino)-2-oxoethyl)-N-(3-fluorophenyl)pyrrolidine-3-carboxamide] | < 20 nM |  |
| O=C(NC1CC(F)(F)C1)[C@@H](c1ccccc1Cl)N(C(=O)[C@@H]1CCN(S(=O)(=O)N2CC2)C1)c1cccc(F)c1 [Example 37, (R)-1-(aziridin-1-ylsulfonyl)-N—((R)-1-(2-chlorophenyl)-2-((3,3-difluorocyclobutyl)amino)-2-oxoethyl)-N-(3-fluorophenyl)pyrrolidine-3-carboxamide] | < 1000 nM |  |
